Data as given in PubChem BioAssay AID248 (DTP/NCI, 2004).
Values joined by “and” are separate entries in the source; they are usually repeats but may differ in a detail not shown here. Identical values can stand only once. Inconclusive results and toxic doses are left out. No stated cut-off is given here; in the data, active means T/C of 150% or more; inactive means T/C below 125%.

Tested on: L1210 leukemia ip in BDF1 mice, survival T/C
Experiment: NCI In Vivo Anticancer Drug Screen. Data for tumor model L1210 Leukemia (intraperitoneal) in B6D2F1 (BDF1) mice
Conditions: higher = longer survival
Method in brief: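 Tumor cells were implanted, animals were treated, and survival was followed. The result divides the treated measurement by the vehicle-control measurement.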

[1] = endpoint: mean survival time, dose: 100.0 mg/kg/injection, schedule: Q04DX003 (ip), vehicle: water
[2] = endpoint: mean survival time, dose: 200.0 mg/kg/injection, schedule: Q04DX003 (ip), vehicle: water
[3] = endpoint: mean survival time, dose: 100.0 mg/kg/injection, schedule: Q01DX009 (ip), vehicle: Klucel (hydroxypropylcellulose) (HPC)
[4] = endpoint: mean survival time, dose: 200.0 mg/kg/injection, schedule: Q01DX009 (ip), vehicle: Klucel (hydroxypropylcellulose) (HPC)
[5] = endpoint: mean survival time, dose: 400.0 mg/kg/injection, schedule: Q01DX009 (ip), vehicle: Klucel (hydroxypropylcellulose) (HPC)
[6] = endpoint: mean survival time, dose: 100.0 mg/kg/injection, schedule: Q01DX001 (ip), vehicle: saline
[7] = endpoint: mean survival time, dose: 200.0 mg/kg/injection, schedule: Q01DX001 (ip), vehicle: saline

Measured: T/C

COC(=O)c1c(OC)cc(OC)cc1OC
inactive: endpoint: mean survival time, dose: 100.0 mg/kg/injection, schedule: Q01DX009 (ip), vehicle: other 96 % of control | endpoint: mean survival time, dose: 100.0 mg/kg/injection, schedule: Q04DX003 (ip), vehicle: saline 100 % of control | endpoint: mean survival time, dose: 200.0 mg/kg/injection, schedule: Q01DX009 (ip), vehicle: other 96 % of control | endpoint: mean survival time, dose: 200.0 mg/kg/injection, schedule: Q04DX003 (ip), vehicle: saline 97 % of control | endpoint: mean survival time, dose: 400.0 mg/kg/injection, schedule: Q01DX009 (ip), vehicle: other 94 % of control | endpoint: mean survival time, dose: 400.0 mg/kg/injection, schedule: Q04DX003 (ip), vehicle: saline 95 % of control

CCN(CC)CCCC(C)NC(=O)c1cc(=O)[nH]c(=O)[nH]1 (stereo not given)
inactive: endpoint: mean survival time, dose: 25.0 mg/kg/injection, schedule: Q01DX009 (ip), vehicle: water 106 % of control | endpoint: mean survival time, dose: 50.0 mg/kg/injection, schedule: Q01DX009 (ip), vehicle: water 96 % of control | endpoint: mean survival time, dose: 100.0 mg/kg/injection, schedule: Q01DX009 (ip), vehicle: water 103 % of control and 91 % of control | [1] 104 % of control | [2] 101 % of control

CN(C)N=Nc1ccc(C(N)=O)cc1
inactive: endpoint: mean survival time, dose: 30.0 mg/kg/injection, schedule: Q01DX Z (ip), vehicle: other 108 % of control | endpoint: mean survival time, dose: 40.0 mg/kg/injection, schedule: Q01DX Z (ip), vehicle: other 111 % of control | endpoint: mean survival time, dose: 60.0 mg/kg/injection, schedule: Q01DX Z (ip), vehicle: other 121 % of control | endpoint: median survival time, dose: 65.0 mg/kg/injection, schedule: Q01DX001 (ip), vehicle: steriod suspending solution 100 % of control | endpoint: median survival time, dose: 65.0 mg/kg/injection, schedule: Q01DX009 (ip), vehicle: steriod suspending solution 105 % of control | endpoint: median survival time, dose: 108.0 mg/kg/injection, schedule: Q01DX001 (ip), vehicle: steriod suspending solution 100 % of control | endpoint: median survival time, dose: 180.0 mg/kg/injection, schedule: Q04DX003 (ip), vehicle: steriod suspending solution 105 % of control | endpoint: median survival time, dose: 300.0 mg/kg/injection, schedule: Q01DX001 (ip), vehicle: steriod suspending solution 100 % of control

O=c1c(-c2ccccc2)c(S)sc(S)c1-c1ccccc1
inactive: endpoint: mean survival time, dose: 100.0 mg/kg/injection, schedule: Q04DX002 (ip), vehicle: gum acacia 93 % of control | endpoint: mean survival time, dose: 200.0 mg/kg/injection, schedule: Q04DX002 (ip), vehicle: gum acacia 104 % of control | endpoint: mean survival time, dose: 400.0 mg/kg/injection, schedule: Q04DX002 (ip), vehicle: gum acacia 93 % of control

CN(C)C(=S)Oc1ccc([N+](=O)[O-])cc1Cl
inactive: [3] 103 % of control | [4] 95 % of control | [5] 100 % of control

CN(N=O)C(=O)Nc1cccc2cccnc12
inactive: endpoint: mean survival time, dose: 6.25 mg/kg/injection, schedule: Q01DX Z (ip), vehicle: carboxymethylcellulose (CMC) 101 % of control | endpoint: mean survival time, dose: 12.5 mg/kg/injection, schedule: Q01DX Z (ip), vehicle: carboxymethylcellulose (CMC) 106 % of control | endpoint: mean survival time, dose: 25.0 mg/kg/injection, schedule: Q01DX Z (ip), vehicle: carboxymethylcellulose (CMC) 124 % of control

Cc1ccc2nc(Cl)cc(=O)n2c1
inactive: endpoint: mean survival time, dose: 50.0 mg/kg/injection, schedule: Q01DX001 (ip), vehicle: saline 97 % of control | [6] 97 % of control | [7] 97 % of control

CC(=O)Oc1ccc(OC(C)=O)c2c1C1C=CC2C1
inactive: [6] 103 % of control | [7] 103 % of control | endpoint: mean survival time, dose: 400.0 mg/kg/injection, schedule: Q01DX001 (ip), vehicle: saline 101 % of control

CC1CC(C)CC(C)C(O)/C(C#N)=C/C=C/CC(C2CCCC2C(=O)O)OC(=O)CC(O)C(C)C1 (stereo not given)
inactive: endpoint: mean survival time, dose: 0.5 mg/kg/injection, schedule: Q01DX009 (ip), vehicle: saline with Tween-80 98 % of control | endpoint: mean survival time, dose: 1.0 mg/kg/injection, schedule: Q01DX009 (ip), vehicle: saline with Tween-80 104 % of control | endpoint: mean survival time, dose: 2.0 mg/kg/injection, schedule: Q01DX009 (ip), vehicle: saline with Tween-80 96 % of control

COc1ccc(S(=O)(=O)/N=C(/C2CC3=CCC4C5CCC(=O)C5(C)CC(=O)C4C3(C)C2)N2CCCC2)cc1 (stereo not given)
inactive: endpoint: mean survival time, dose: 100.0 mg/kg/injection, schedule: Q01DX001 (ip), vehicle: other 103 % of control | endpoint: mean survival time, dose: 200.0 mg/kg/injection, schedule: Q01DX001 (ip), vehicle: other 108 % of control | endpoint: mean survival time, dose: 400.0 mg/kg/injection, schedule: Q01DX001 (ip), vehicle: other 98 % of control

N#CCc1[nH]cnc1C#N
inactive: [1] 100 % of control and 111 % of control and 115 % of control | [2] 95 % of control and 115 % of control | endpoint: mean survival time, dose: 300.0 mg/kg/injection, schedule: Q04DX003 (ip), vehicle: water 113 % of control | endpoint: mean survival time, dose: 400.0 mg/kg/injection, schedule: Q04DX003 (ip), vehicle: water 100 % of control (2×) and 122 % of control

NC1(C(=O)NCC(=O)O)C2CC3CC(C2)CC1C3 (stereo not given)
inactive: endpoint: mean survival time, dose: 25.0 mg/kg/injection, schedule: Q01DX009 (ip), vehicle: Klucel (hydroxypropylcellulose) (HPC) 94 % of control | endpoint: mean survival time, dose: 50.0 mg/kg/injection, schedule: Q01DX009 (ip), vehicle: Klucel (hydroxypropylcellulose) (HPC) 100 % of control | [3] 97 % of control and 99 % of control | [4] 103 % of control | [5] 102 % of control

Cc1ccc(C(=NN=C(N)N)c2ccc(C)cc2)cc1
inactive: endpoint: mean survival time, dose: 3.75 mg/kg/injection, schedule: Q01DX Z (ip), vehicle: saline 101 % of control | endpoint: mean survival time, dose: 7.5 mg/kg/injection, schedule: Q01DX Z (ip), vehicle: saline 95 % of control | endpoint: mean survival time, dose: 7.5 mg/kg/injection, schedule: Q01DX Z (oral), vehicle: saline 98 % of control | endpoint: mean survival time, dose: 15.0 mg/kg/injection, schedule: Q01DX Z (ip), vehicle: saline 93 % of control and 94 % of control | endpoint: mean survival time, dose: 15.0 mg/kg/injection, schedule: Q01DX Z (oral), vehicle: saline 96 % of control | endpoint: mean survival time, dose: 30.0 mg/kg/injection, schedule: Q01DX Z (ip), vehicle: saline 104 % of control | endpoint: mean survival time, dose: 30.0 mg/kg/injection, schedule: Q01DX Z (oral), vehicle: saline 101 % of control | endpoint: mean survival time, dose: 60.0 mg/kg/injection, schedule: Q01DX Z (oral), vehicle: saline 101 % of control

N#CC(C#N)N=Nc1ccc(Cl)cc1Cl
inactive: endpoint: mean survival time, dose: 2.5 mg/kg/injection, schedule: Q04DX002 (ip), vehicle: Klucel (hydroxypropylcellulose) (HPC) 98 % of control | endpoint: mean survival time, dose: 5.0 mg/kg/injection, schedule: Q04DX002 (ip), vehicle: Klucel (hydroxypropylcellulose) (HPC) 102 % of control | endpoint: mean survival time, dose: 10.0 mg/kg/injection, schedule: Q04DX002 (ip), vehicle: Klucel (hydroxypropylcellulose) (HPC) 98 % of control
